Source: the Kinase Knowledgebase extract (Sharma et al. 2016)

Legend:
PIK3CD (Human) = PIK3CD (Human) (UniProt O00329); assay: Assessment of PIK3CD Kinase Activity
PIK3CG (human) = PIK3CG (human) (UniProt P48736); assay: Assessment of PIK3CG Kinase Activity
PIK3CB (Human) = PIK3CB (Human) (UniProt P42338); assay: Assessment of PIK3CB Kinase Activity
PIK3CA (human) = PIK3CA (human) (UniProt P42336); assay: Assessment of PIK3CA Kinase Activity
Sequence of PIK3CA (human) (P42336 whole entry, looked up): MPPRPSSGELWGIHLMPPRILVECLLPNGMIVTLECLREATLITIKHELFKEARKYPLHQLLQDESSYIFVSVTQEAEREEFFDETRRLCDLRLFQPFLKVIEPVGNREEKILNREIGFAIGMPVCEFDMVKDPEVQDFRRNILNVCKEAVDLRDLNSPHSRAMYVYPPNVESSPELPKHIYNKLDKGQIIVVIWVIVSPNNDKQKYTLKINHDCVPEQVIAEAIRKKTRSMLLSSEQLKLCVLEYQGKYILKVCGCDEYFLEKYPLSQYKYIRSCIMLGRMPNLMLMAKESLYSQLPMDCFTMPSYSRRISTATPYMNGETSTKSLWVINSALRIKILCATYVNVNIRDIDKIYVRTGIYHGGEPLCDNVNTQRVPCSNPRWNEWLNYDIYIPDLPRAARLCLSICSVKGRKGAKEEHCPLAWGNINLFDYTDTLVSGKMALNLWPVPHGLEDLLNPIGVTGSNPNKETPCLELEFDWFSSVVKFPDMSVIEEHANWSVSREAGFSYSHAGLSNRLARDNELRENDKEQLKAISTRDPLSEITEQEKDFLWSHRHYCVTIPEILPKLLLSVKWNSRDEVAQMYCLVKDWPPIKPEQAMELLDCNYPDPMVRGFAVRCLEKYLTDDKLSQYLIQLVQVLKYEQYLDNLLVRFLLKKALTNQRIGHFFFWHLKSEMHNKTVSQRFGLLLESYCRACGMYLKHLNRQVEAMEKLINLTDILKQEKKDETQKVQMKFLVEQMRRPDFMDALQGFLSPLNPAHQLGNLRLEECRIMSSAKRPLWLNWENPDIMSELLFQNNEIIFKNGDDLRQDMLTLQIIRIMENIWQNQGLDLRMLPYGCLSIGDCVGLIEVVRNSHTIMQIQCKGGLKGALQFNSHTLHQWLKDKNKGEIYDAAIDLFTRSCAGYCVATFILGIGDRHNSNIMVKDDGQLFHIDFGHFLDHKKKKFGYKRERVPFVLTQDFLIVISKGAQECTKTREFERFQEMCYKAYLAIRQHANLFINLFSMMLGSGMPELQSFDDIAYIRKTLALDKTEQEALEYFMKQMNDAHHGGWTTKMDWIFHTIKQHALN

Sequence of PIK3CG (human) (P48736 whole entry, looked up): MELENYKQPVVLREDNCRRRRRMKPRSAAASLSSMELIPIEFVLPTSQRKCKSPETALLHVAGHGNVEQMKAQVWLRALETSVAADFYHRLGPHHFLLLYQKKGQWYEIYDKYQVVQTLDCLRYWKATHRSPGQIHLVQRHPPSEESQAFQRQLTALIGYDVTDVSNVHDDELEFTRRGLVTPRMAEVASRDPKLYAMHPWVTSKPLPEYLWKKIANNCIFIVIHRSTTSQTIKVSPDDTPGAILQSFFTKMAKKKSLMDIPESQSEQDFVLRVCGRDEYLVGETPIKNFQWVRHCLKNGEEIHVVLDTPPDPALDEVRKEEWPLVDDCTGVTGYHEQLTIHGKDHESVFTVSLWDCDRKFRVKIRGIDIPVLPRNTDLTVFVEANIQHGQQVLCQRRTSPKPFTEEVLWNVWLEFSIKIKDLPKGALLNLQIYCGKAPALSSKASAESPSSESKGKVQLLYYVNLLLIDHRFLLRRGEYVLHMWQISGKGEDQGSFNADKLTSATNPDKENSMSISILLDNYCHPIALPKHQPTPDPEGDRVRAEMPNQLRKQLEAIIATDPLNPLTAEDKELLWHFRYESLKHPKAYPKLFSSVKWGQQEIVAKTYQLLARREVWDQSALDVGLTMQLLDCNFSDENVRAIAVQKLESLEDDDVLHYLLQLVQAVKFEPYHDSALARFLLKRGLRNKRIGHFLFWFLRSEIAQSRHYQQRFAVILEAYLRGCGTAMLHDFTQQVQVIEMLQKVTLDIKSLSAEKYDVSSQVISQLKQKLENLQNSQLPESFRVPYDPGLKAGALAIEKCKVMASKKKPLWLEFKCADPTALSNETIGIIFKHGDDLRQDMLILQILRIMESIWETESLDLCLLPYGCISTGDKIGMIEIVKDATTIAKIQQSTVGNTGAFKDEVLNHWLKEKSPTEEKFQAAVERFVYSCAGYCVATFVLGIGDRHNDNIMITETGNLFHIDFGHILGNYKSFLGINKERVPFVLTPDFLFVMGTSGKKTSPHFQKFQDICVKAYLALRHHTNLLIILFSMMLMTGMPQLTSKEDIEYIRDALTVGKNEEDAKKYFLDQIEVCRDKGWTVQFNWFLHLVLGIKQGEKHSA
Sequence of PIK3CB (Human) (P42338 whole entry, looked up): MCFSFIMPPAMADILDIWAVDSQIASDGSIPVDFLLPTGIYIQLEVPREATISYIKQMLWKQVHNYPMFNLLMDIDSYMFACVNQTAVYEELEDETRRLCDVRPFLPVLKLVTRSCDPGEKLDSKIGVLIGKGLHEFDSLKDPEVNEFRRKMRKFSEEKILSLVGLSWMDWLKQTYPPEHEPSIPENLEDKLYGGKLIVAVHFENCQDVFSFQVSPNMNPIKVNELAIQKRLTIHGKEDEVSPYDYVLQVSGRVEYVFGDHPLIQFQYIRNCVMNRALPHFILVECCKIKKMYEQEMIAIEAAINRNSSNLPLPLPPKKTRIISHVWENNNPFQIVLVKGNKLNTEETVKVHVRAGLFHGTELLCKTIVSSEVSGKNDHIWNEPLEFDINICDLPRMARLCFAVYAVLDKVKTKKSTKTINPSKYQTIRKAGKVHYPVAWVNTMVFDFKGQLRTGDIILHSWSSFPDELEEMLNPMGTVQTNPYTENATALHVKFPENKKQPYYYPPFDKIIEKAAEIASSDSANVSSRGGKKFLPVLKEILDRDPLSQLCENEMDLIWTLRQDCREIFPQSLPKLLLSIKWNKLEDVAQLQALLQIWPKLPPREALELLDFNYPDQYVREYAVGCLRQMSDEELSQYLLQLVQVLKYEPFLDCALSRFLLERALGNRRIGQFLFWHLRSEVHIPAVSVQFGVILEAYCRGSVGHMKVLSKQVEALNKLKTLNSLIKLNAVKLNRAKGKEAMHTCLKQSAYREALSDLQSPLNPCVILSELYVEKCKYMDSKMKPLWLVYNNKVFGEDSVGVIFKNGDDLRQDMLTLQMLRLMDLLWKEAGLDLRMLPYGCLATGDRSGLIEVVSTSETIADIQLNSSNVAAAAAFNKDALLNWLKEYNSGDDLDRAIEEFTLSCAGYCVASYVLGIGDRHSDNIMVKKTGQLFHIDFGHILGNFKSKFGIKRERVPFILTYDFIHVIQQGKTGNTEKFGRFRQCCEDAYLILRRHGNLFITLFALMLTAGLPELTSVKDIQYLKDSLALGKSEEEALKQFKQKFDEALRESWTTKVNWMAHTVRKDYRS
Sequence of PIK3CD (Human) (O00329 whole entry, looked up): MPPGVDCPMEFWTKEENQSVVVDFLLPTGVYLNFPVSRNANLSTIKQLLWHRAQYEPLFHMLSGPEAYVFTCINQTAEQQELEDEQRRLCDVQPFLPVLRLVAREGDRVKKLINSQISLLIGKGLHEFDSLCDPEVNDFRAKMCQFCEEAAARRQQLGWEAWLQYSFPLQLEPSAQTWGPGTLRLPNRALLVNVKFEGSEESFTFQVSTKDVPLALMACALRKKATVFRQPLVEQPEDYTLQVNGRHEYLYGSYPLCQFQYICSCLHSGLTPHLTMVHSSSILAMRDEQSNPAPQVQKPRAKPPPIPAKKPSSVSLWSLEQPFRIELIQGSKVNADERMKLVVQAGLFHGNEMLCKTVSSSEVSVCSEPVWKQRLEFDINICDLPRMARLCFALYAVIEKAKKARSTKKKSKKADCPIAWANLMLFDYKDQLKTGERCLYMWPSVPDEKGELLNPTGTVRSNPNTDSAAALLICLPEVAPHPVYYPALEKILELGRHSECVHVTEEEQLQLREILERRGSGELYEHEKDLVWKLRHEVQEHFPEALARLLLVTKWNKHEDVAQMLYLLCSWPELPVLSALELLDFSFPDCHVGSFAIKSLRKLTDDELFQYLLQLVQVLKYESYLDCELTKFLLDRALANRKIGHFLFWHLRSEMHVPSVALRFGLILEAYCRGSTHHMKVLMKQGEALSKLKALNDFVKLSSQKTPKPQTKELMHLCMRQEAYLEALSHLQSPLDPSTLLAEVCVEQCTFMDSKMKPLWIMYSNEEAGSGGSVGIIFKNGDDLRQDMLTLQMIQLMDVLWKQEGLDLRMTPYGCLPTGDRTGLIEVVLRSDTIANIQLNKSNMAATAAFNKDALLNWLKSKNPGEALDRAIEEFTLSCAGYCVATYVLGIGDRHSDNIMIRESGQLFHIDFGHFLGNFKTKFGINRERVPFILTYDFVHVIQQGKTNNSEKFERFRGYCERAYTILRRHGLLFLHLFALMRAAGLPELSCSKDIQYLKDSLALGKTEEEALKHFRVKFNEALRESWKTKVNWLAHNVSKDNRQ

Row | Compound | IC50 (PIK3CD (Human)) [nM] | IC50 (PIK3CG (human)) [nM] | IC50 (PIK3CB (Human)) [nM] | IC50 (PIK3CA (human)) [nM]
1 | Nc1ncnc2c1c(C=C1SC(=O)NC1=O)nn2Cc1cc2ccccc2nc1-c1ccccc1F | ≤ 100 | ≤ 100 |  | 
2 | CN1CCN(c2nc3ccccc3nc2Cn2nc(-c3cc(O)cc(F)c3)c3c(N)ncnc32)CC1 | ≤ 100 |  | 100 to 1000 | 
3 | CN1CCN(c2nc3ccccc3cc2Cn2nc(-c3ccc4nc(N)sc4c3)c3c(N)ncnc32)CC1 | ≤ 100 | ≤ 100 | ≤ 100 | ≤ 100
4 | Nc1nc2ccc(-c3nn(Cc4cc5ccccc5nc4-c4ccccc4C(F)(F)F)c4ncnc(N)c34)cc2[nH]1 | ≤ 100 |  |  | 
5 | CC(c1cc2ccccc2nc1-c1ccccc1)n1nc(-c2cc(O)cc(F)c2)c2c(N)ncnc21 (configuration not stated) | ≤ 100 | ≤ 100 | 100 to 1000 | 100 to 1000
6 | Nc1ncnc2c1c(-c1cccc(O)c1)nn2Cc1cc2ccccc2nc1-c1cccnc1 | ≤ 100 |  |  | 

The next lines start with the values.

Row | IC50 (PIK3CD (Human)) [nM] | IC50 (PIK3CG (human)) [nM] | IC50 (PIK3CB (Human)) [nM] | IC50 (PIK3CA (human)) [nM] | Compound
7 | ≤ 100 | ≤ 100 |  | ≤ 100 | CC(=O)Nc1nc2ccc(-c3nn(Cc4nc5ccccc5nc4N4CCCC4)c4ncnc(N)c34)cc2s1
8 | ≤ 100 |  |  | 100 to 1000 | Cc1nccn1-c1nc2ccccc2cc1Cn1nc(-c2ccc3nc(N)sc3c2)c2c(N)ncnc21
9 | 100 to 1000 |  |  |  | Nc1ncc(-c2nn(Cc3cc4ccccc4nc3-c3ccccc3)c3ncnc(N)c23)cn1
10 | ≤ 100 | 100 to 1000 | ≤ 100 | 100 to 1000 | CC(=O)Nc1nc2ccc(-c3nn(Cc4nc5ccccc5nc4N4CCN(C)CC4)c4ncnc(N)c34)cc2s1
11 | 100 to 1000 |  |  |  | NC(=O)C=Cc1nn(Cc2cc3ccccc3nc2-c2ccccc2F)c2ncnc(N)c12
12 | ≤ 100 |  |  |  | CCC(c1cc2ccccc2nc1N1CCCC1)n1nc(C#C[C@@H](C)O)c2c(N)ncnc21 (some centres not stated)
13 | ≤ 100 |  |  |  | Nc1ncnc2c1c(-c1ccc3cn[nH]c3c1)nn2Cc1cc2ccccc2nc1N1CCCC1
14 | ≤ 100 | ≤ 100 |  | 100 to 1000 | Nc1nc2ccc(-c3nn(Cc4nc5ccccc5nc4N4CCCC4)c4ncnc(N)c34)cc2s1
15 | ≤ 100 | ≤ 100 |  |  | Cc1ccccc1-c1nc2ccccc2cc1Cn1nc(-c2ccc3nc(N)sc3c2)c2c(N)ncnc21
